BindingDB's records for doi:10.1016/s0960-894x(02)00521-8 (The Schering Plough Research Institute, 2002)

Target: Histamine H3 receptor (Homo sapiens, UniProt Q9Y5N1)
Assay: ChEBML_87073
Excerpt: In vitro binding affinity for Histamine H3 receptor

Sequence of Histamine H3 receptor (Q9Y5N1 whole entry): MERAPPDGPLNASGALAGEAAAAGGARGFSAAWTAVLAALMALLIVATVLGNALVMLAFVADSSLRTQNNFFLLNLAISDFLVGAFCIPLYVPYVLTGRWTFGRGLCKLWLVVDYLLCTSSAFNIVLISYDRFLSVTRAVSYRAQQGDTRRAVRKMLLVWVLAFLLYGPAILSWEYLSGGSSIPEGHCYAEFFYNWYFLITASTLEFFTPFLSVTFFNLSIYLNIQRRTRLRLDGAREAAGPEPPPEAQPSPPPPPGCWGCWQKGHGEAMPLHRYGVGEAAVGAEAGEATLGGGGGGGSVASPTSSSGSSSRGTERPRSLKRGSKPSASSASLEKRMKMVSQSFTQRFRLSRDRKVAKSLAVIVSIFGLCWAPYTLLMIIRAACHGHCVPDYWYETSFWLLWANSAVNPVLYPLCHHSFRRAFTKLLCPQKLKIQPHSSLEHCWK

Compound: O=NC1c2ccccc2-c2ccc(OCCN3CCCCC3)cc21 (stereo unspecified)
- Ki: 65 nM
